# Legend:
# Assay type in all cases: cell-based
# A549 cells [1] = experiment: GFP-LC3 transfection and Mito Tracker Red fluorescence observation; details: 20 μM, 4 days
# Experimental: 5×10^4 cells were inoculated and cultured for 24 hours. Then, 500 μL of OptiMEM, 10 μg of vector DNA (7.5 μL of P3000 reagent), and 20 μL of Lipofectamine(R) 3000 (Thermo Fisher Scientific) were added to the cells, which were then left at room temperature for 5 minutes for transfection and cultured for 24 hours. Then, 1000 subcultured cells were inoculated, cultured with 20 μM CCC021-TPP for 4 days, and then confirmed by fluorescence observation with Mito Tracker Red.
# PC14 cells [2] = experiment: ROS production with MitoSOX Red; details: 10 μM, 24 hours
# Experimental: (§1) In order to confirm the production induction of reactive oxygen species (ROS) by mitophagy, the production of reactive oxygen species was fluorescently observed with MitoSOX Red (Invitrogen). 10^4 A549 or PC14 cells were inoculated, cultured for 10 hours, then treated with 10 μM CCC021-TPP for 24 hours, then washed with PBS, and treated at 37° C. for 10 minutes with MitoSOX Red dissolved in 13 μL of DMSO and diluted into 5 μM (final concentration) with PBS. The cells were washed with PBS and then observed under SP8 confocal microscope.
# A549 cells [3] = experiment: ROS production with MitoSOX Red; details: 10 μM, 24 hours
# Experimental: as §1
# A549 cells [4] = experiment: Autophagy by anti-LC3 / cytochrome C immunofluorescent staining; details: 20 μM, 4-day treatment
# Description: A possible cause of cellular senescence was the induction of mitochondrion-specific autophagy (mitophagy) of mutant mitochondria by the administration of CCC021-TPP. It is considered that the excessive production of reactive oxygen species in association therewith was involved in the induction of cellular senescence.
# A549 cells [5] = experiment: SA-β-Gal staining (senescence marker β-galactosidase); details: 20 μM, 5 days
# Experimental: In order to study whether cellular senescence was induced, the activity of a senescence marker β-galactosidase was determined with SPiDER-β-Gal (DOINDO) in the A549 cells and the PC14 cells after CCC021-TPP administration. 1000 cells were inoculated to a 35 mm dish and then cultured for 24 hours. Then, CCC021-TPP was administered (final concentration: 20 μM), and the cells were cultured for 5 days, washed twice with Hanks' balanced salt solution (HBSS) (pH 7.3), then treated with 500 μL of 4% paraformaldehyde at room temperature for 3 minutes, then washed twice with HBSS again, then treated with 500 μl of SPiDER-β-Gal Working Solution at 37° C. for 30 minutes, then washed once with HBSS, and observed under SP8 confocal microscope.
# A549 cells [6] = experiment: Synthetic lethality: cell morphology with CCC021-TPP and ABT-199 or A1155463; details: 4 days
# Experimental: It was confirmed with the BCL2- and BCL-XL-specific inhibitor that the suppression of cell death in the cellular senescence of the A549 cells was presumably due to the BCL pathway. The type of BCL pathway inhibition, combined use of which could induce cell death (apoptosis) in the senescent cells of the A549 cells was studied. Five hundred A549 cells were inoculated to a 96-well plate and cultured for 24 hours. Then, change in cell morphology was photographed under an optical microscope either without administration (i.e., after DMSO treatment) or 4 days after treatment with 20 μM CCC021-TPP and 10 μM BCL2 inhibitor ABT-199 (compound venetoclax of No. 33 in FIG. 55-10) or 10 μM BCL-XL inhibitor A1155463 (compound of No. 16 in FIG. 55-6) each alone, or treatment by combined use of the same concentration of CCC021-TPP with the same concentration of ABT-199 or A1155463.
# A549 cells [7] = experiment: Synthetic lethality: cell morphology with CCC021-TPP and ABT-263; details: days 2 and 4
# Description: Since the suppression of cell death in the cellular senescence of the A549 cells was presumably due to the BCL pathway, it was believed that the apoptosis of cells whose cellular senescence was evoked by CCC021-TPP could be induced by combined use with ABT-263 (Cayman Chemical Company) serving as a senolytic drug and a BCL pathway inhibitor. Thus, the possibility of inducing the cell death of senescent cells by CCC021-TPP treatment and combined use with the BCL2/BCL-XL inhibitor ABT-263 was observed under an optical microscope to observe change in cell morphology. Five hundred A549 cells were inoculated to a 96-well plate, cultured for 24 hours, and then observed over time under an optical microscope either without administration or after administration of 20 μM CCC021-TPP and 10 μM ABT-263 each used alone or used concurrently, and cell morphology was photographed on days 2 and 4.
# PC14 cells [8] = experiment: Trypan blue assay of live cell numbers; details: PC14, 7 days later
# Experimental: (§2) The A549 cells and the PC14 cells were inoculated at 5×10^3 cells/dish and 1×10^4 cells/dish, respectively, to 35 mm glass base dishes (IWAKI, Japan), cultured for 24 hours, and then treated with CCC021-TPP (final concentration: 20 μM). Further, 24 hours later, the culture solution was discarded, and a DMEM culture solution containing Mito Tracker(R) Red CMXRos (Life Technologies, USA) was added to attain 100 nM. 30 minutes later, the cells were washed twice with PBS, then fixed in 4% PFA for 30 minutes, then medium-replaced with PBS, preserved at 4° C., immunostained with the antibody by the method described in Example 1, and observed under confocal laser microscope SP8 (Leica, Germany). […] A549 and PC14 were each inoculated at 5×10^2 cells/well to 16 wells of a 96-well plate, cultured for 24 hours, and then treated with CCC021-TPP at 0, 1, 2, 5, 10, 25, and 50 μM each for 2 wells. 5 days later, the cells were reacted at room temperature for 2 hours using CytoSelect™ MTT Cell Proliferation Assay (Cosmo Bio Co., Ltd.), followed by the measurement of absorbance at 590 nm with SPECTRAFLUOR Plus (Tecan Group Ltd.) to conduct a rechallenge experiment of cell proliferation. […] 7 days later, as for change in the live cell numbers of the A549 cells and the PC14 cells, the live cell numbers were measured by trypan blue staining to experimentally examine cell survival rates.
# A549 cells [9] = experiment: Trypan blue assay of live cell numbers; details: A549, 7 days later
# Experimental: as §2
smiles,measurement,setting,value
CN(C)CCCNC(=O)CCNC(=O)c1cc(NC(=O)c2cc(NC(=O)CCNC(=O)c3nc(NC(=O)c4cc(NC(=O)c5cc(NC(=O)CCNC(=O)CCCC[P+](c6ccccc6)(c6ccccc6)c6ccccc6)cn5C)cn4C)cn3C)cn2C)cn1C [CCC021-TPP],localization of GFP-LC3 on mitochondria,A549 cells [1],colocalized with red fluorescence from Mito Tracker Red
same,ROS production,PC14 cells [2],rarely observed
same,ROS production,A549 cells [3],excessive induction of ROS production in cytoplasm was observed
same,mitophagy (colocalization of LC3 and cytochrome C),A549 cells [4],mitophagy was induced
same,activity of senescence marker β-galactosidase,A549 cells [5],elevated activity of β-galactosidase was confirmed
same,cell death (morphology),A549 cells [6]; 20 μM CCC021-TPP and 10 μM A1155463 used concurrently,markedly increased numbers of cells that underwent apoptosis
same,cell death (morphology),"A549 cells [6]; single administration: 20 μM CCC021-TPP, 10 μM ABT-199, 10 μM A1155463",Any finding indicating cell death was not obtained
same,cells that underwent apoptosis (morphology),A549 cells [7]; combined use of 20 μM CCC021-TPP and 10 μM ABT-263,cells that evidently underwent apoptosis were already found
same,cells that underwent apoptosis (morphology),"A549 cells [7]; each used alone: 20 μM CCC021-TPP, 10 μM ABT-263",not detected
same,viability (trypan blue),PC14 cells [8],no influence on the viability
same,viability (trypan blue),A549 cells [9],no influence on the viability
